Data set [1] can be described thus: Stability testing of spray dried batches at 25° C./60% RH, 30° C./60% RH, 40° C./75% RH (moisture by Karl Fischer, pH of reconstituted solution, reconstitution time, chromatographic purity). It counts as physicochemical. The settings on record: Initial. On the procedure: (§1) Batches for stability testing were made using the spray dried formulation of vancomycin HCl (15% by weight), PEG-400 (3% by weight), mannitol (3% by weight) in WFI, with the API sourced from Abbott Laboratories (North Chicago, Ill.). Spray dried batches were stored at 25° C./60% Relative Humidity (RH), 30° C./60% RH, and 40° C./75% RH for three months. The stability data on moisture by Karl Fischer, pH (of the reconstituted solution), reconstitution time and chromatographic purity are presented in Table 7. The chromatographic purity was examined using the analytical HPLC method described in the current USP (United States Pharmacopeia) monograph for vancomycin. The test results for the API lot used to make the spray dried product were also listed for comparison.
The chromatographic purity of vancomycin B for all samples tested in this study were within USP specifications. All samples were stored at the accelerated conditions of 40° C./75% RH for 3 months and met USP criterion for vancomycin B by chromatographic purity (NLT 80% vancomycin B).

Data set [2] can be described thus: Chromatographic purity (vancomycin B and impurities), analytical HPLC method of the USP vancomycin monograph. Type of data set: physicochemical. On the procedure:
as §1

The structures appear in SMILES notation. Where a name gives a salt, the structure may show the parent alone.

In the case of `CN[C@H](CC(C)C)C(=O)N[C@H]1C(=O)N[C@@H](CC(N)=O)C(=O)N[C@H]2C(=O)N[C@H]3C(=O)N[C@H](C(=O)N[C@H](C(=O)O)c4cc(O)cc(O)c4-c4cc3ccc4O)[C@H](O)c3ccc(c(Cl)c3)Oc3cc2cc(c3O[C@@H]2O[C@H](CO)[C@@H](O)[C@H](O)[C@H]2O[C@H]2C[C@](C)(N)[C@H](O)[C@H](C)O2)Oc2ccc(cc2Cl)[C@H]1O` [API Lot 09097619, Vancomycin HCl], the “% Vancomycin B” value in data set [1] amounted to 91.9%.
Molecule `CN[C@H](CC(C)C)C(=O)N[C@H]1C(=O)N[C@@H](CC(N)=O)C(=O)N[C@H]2C(=O)N[C@H]3C(=O)N[C@H](C(=O)N[C@H](C(=O)O)c4cc(O)cc(O)c4-c4cc3ccc4O)[C@H](O)c3ccc(c(Cl)c3)Oc3cc2cc(c3O[C@@H]2O[C@H](CO)[C@@H](O)[C@H](O)[C@H]2O[C@H]2C[C@](C)(N)[C@H](O)[C@H](C)O2)Oc2ccc(cc2Cl)[C@H]1O` [API, Vancomycin Hydrochloride] returned an Other in data set [2] (Table 8, other impurities) of 4.5%. In data set [2] (Table 8, tested for impurities), the N-Demethylvancomycin is 0.6% and the “Vancomycin B” value is on record as 94.9%.

These data come from patent US9763997B2, “Spray drying vancomycin” (Hospira, Inc., priority 2011, dated 2017).
